Assay results reported in patent publication US8802849B2, “Tricyclic benzo[4,5]thieno-[2,3-d]pyrimidine-4-yl-amin derivatives, their salts, process for producing the compounds and their pharmaceutical use” (Vichem Chemie Kutató Kft., priority 2008, dated 2014).

Experiments:
EGFR = EGFR (Homo sapiens, UniProt P00533); test: EGFR kinase assay (33P-ATP filter plate); format: biochemical; conditions: for inhibition at 10 µM: 10 μM compound, read-out: EGFR percent of inhibition; for IC50: EGFR-PTK assay
EGFR, sequence (P00533 25-1210): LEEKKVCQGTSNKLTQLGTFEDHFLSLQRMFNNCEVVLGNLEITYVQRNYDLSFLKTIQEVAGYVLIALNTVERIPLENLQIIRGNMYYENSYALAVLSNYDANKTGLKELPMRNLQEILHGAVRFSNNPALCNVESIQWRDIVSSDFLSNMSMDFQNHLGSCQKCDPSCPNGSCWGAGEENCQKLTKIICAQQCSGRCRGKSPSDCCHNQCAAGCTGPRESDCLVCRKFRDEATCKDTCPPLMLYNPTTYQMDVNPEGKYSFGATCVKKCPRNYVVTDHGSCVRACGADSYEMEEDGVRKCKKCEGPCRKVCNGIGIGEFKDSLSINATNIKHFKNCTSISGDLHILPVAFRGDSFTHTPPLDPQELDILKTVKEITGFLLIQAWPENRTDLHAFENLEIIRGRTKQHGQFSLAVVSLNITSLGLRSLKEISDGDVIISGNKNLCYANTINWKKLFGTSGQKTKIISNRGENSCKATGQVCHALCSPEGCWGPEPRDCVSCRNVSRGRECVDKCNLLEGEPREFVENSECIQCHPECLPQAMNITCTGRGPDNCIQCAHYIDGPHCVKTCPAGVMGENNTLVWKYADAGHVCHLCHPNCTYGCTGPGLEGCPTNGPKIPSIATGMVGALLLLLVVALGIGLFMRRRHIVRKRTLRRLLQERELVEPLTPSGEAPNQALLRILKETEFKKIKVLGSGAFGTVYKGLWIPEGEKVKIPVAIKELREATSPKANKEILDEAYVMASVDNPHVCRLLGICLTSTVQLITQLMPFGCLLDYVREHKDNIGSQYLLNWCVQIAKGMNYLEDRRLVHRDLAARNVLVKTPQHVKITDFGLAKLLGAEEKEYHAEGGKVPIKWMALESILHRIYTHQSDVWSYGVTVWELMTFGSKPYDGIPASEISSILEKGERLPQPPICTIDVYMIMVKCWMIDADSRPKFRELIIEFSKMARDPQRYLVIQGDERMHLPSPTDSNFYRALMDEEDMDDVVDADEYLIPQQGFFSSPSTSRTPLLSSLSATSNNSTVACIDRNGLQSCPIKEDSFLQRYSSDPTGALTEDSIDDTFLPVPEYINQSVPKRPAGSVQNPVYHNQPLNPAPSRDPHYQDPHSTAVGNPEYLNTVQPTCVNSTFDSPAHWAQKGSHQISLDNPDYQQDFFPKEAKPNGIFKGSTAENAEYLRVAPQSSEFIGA
Description: (§1) General description of the kinase assays: the kinase activity was assayed in 96-well microtiter plates at a final compound concentration of 10 μM in a total volume of 50 μl. Compounds were dissolved in 100% DMSO to prepare a 10 mM stock solution and than diluted with buffer to reach a 10 μM (or the required) final concentration. The kinase concentration was used to yield 10% ATP turn over. The ATP concentration was used at the KmATP and 12.5 μCi/ml adenosine 5′[γ-33P]triphosphate. The substrate concentration was used at 5 fold excess over the Km for the substrate. The reaction was incubated for 1 hour at room temperature and stopped by addition of 10 μl 50 mM EDTA. The assay was transferred to a 96 well MAPH filter plate (Millipore). The radioactivity was counted on a Microbeta microplate counter.

AKT1/PKBa = AKT1/PKBa (Homo sapiens, UniProt P31749); test: AKT1/PKBa kinase assay; format: biochemical; conditions: 10 μM compound; read-out: AKT1/PKBa percent of inhibition
Description: as §1

Abl = Abl (Homo sapiens, UniProt P00519); test: Abl kinase assay; format: biochemical; conditions: 10 μM compound; read-out: Abl percent of inhibition
Description: as §1

CDK2/CycA = CDK2/CycA (Homo sapiens, UniProt P24941); test: CDK2/CycA kinase assay; format: biochemical; conditions: 10 μM compound; read-out: CDK2/CycA percent of inhibition
Description: as §1

CK1-alpha = CK1-alpha (Homo sapiens, UniProt P48729); test: CK1-alpha kinase assay; format: biochemical; conditions: 10 μM compound; read-out: CK1-alpha percent of inhibition
CK1-alpha, sequence (P48729 whole entry): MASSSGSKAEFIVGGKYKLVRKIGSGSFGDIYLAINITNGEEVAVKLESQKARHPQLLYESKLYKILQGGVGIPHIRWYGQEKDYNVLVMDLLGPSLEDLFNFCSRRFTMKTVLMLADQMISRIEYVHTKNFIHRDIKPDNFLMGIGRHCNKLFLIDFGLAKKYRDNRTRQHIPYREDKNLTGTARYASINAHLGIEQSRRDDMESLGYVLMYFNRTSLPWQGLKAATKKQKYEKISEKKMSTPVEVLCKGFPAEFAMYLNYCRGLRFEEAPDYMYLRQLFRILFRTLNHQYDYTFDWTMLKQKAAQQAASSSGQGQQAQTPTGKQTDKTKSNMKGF
Description: as §1

GSK-3beta = GSK-3beta (Homo sapiens, UniProt P49841); test: GSK-3beta kinase assay; format: biochemical; conditions: 10 μM compound; read-out: GSK-3beta percent of inhibition
Description: as §1

IKK-beta = target: T1, IKK-beta (Homo sapiens, UniProt O14920); test: IKK-beta kinase assay; format: biochemical; conditions: 10 μM compound; read-out: IKK-beta percent of inhibition
T1 sequence (O14920 1-756): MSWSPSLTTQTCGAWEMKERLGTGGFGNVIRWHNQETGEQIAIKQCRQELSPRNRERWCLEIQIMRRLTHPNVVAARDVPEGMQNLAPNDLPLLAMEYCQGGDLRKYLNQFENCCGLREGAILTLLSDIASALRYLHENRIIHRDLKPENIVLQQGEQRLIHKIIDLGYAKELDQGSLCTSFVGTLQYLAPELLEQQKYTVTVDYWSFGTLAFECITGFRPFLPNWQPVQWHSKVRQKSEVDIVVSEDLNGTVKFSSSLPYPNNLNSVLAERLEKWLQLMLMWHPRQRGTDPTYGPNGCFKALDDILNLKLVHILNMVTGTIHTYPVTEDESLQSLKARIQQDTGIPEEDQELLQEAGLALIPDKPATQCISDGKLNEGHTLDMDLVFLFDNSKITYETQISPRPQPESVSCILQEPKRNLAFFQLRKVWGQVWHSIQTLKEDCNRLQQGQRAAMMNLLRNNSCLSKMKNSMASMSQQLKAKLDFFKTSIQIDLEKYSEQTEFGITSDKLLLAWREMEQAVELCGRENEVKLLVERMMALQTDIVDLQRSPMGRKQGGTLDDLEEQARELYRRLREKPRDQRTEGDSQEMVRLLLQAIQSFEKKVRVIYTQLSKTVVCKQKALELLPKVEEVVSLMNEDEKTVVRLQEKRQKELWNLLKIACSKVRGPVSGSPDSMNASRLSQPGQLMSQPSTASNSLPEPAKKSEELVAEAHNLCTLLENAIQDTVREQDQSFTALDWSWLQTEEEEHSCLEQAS
Description: as §1

InsR = InsR (Homo sapiens, UniProt P06213); test: InsR kinase assay; format: biochemical; conditions: 10 μM compound; read-out: InsR percent of inhibition
Description: as §1

Jnk1a1 = Jnk1a1 (Homo sapiens, UniProt P45983); test: Jnk1a1 kinase assay; format: biochemical; conditions: 10 μM compound; read-out: Jnk1a1 percent of inhibition
Description: as §1

Kit = Kit (Homo sapiens, UniProt P10721); test: Kit kinase assay; format: biochemical; conditions: 10 μM compound; read-out: Kit percent of inhibition
Kit, sequence (P10721 26-976, species assumed): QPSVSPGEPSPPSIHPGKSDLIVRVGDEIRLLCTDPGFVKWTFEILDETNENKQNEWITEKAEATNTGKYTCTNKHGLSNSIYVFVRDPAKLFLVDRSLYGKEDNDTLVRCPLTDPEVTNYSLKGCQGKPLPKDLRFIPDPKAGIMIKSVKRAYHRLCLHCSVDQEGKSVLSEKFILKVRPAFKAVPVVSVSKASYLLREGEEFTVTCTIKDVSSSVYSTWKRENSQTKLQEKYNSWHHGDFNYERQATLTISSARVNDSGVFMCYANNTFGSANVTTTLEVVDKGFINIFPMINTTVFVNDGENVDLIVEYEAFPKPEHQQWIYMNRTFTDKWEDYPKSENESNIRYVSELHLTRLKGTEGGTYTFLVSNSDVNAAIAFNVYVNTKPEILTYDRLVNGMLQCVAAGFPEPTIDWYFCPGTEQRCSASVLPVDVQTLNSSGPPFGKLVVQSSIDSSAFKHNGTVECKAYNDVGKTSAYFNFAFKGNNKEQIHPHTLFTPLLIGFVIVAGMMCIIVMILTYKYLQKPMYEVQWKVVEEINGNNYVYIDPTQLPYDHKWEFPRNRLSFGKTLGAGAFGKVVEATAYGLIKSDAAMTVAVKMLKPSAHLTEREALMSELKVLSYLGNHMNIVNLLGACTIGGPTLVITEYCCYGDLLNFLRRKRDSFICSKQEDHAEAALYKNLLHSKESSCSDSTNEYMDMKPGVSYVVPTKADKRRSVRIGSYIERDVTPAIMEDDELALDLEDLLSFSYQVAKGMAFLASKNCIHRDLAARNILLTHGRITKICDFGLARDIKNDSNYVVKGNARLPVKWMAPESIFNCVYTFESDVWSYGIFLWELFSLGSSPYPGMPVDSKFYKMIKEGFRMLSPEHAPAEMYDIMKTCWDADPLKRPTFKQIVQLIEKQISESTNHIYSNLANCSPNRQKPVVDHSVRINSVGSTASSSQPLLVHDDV
Description: as §1

MAPK-ERK1 = MAPK-ERK1 (Homo sapiens, UniProt P27361); test: MAPK-ERK1 kinase assay; format: biochemical; conditions: 10 μM compound; read-out: MAPK-ERK1 percent of inhibition
Description: as §1

PDGFR-beta = PDGFR-beta (Homo sapiens, UniProt P09619); test: PDGFR-beta kinase assay; format: biochemical; conditions: 10 μM compound; read-out: PDGFR-beta percent of inhibition
Description: as §1

ROCK2 = ROCK2 (Homo sapiens, UniProt O75116); test: ROCK2 kinase assay; format: biochemical; conditions: 10 μM compound; read-out: ROCK2 percent of inhibition
ROCK2, sequence (O75116 whole entry, species assumed): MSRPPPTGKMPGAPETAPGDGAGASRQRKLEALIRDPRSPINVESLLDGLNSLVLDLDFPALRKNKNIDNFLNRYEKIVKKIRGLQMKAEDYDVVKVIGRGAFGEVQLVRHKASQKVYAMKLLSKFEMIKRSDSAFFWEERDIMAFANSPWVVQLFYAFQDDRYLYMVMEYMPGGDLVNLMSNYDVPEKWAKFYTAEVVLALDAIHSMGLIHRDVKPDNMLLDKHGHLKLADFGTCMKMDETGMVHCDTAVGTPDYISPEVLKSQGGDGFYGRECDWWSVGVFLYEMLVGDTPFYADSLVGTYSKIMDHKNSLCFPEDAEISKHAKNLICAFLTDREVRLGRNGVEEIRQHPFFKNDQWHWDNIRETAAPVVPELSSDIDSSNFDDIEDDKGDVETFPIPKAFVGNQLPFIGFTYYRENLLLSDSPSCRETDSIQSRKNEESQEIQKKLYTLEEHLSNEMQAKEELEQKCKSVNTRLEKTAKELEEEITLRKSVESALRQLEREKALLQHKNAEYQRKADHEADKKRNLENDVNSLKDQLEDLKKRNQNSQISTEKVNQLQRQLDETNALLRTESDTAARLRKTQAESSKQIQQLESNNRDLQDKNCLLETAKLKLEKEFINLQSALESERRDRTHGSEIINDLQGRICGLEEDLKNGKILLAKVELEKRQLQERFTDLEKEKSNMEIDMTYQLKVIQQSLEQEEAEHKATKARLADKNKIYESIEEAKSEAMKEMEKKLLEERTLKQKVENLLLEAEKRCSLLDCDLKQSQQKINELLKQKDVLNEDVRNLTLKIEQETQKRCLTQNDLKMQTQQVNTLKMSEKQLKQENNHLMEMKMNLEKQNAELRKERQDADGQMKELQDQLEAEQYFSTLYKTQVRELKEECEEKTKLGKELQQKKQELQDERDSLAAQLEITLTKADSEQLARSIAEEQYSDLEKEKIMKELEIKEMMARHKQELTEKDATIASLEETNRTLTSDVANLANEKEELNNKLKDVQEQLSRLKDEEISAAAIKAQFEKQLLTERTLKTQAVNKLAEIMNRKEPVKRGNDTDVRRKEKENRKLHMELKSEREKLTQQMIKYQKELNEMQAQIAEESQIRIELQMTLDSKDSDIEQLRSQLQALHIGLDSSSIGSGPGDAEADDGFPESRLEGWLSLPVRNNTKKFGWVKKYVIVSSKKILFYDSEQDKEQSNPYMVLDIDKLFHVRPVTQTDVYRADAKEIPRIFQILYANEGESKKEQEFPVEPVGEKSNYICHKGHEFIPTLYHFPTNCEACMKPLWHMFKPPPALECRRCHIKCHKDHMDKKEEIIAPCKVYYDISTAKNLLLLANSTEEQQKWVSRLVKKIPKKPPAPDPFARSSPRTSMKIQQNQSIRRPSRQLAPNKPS
Description: as §1

RSK1 = RSK1 (Homo sapiens, UniProt Q15418); test: RSK1 kinase assay; format: biochemical; conditions: 10 μM compound; read-out: RSK1 percent of inhibition
Description: as §1

SRPK1 = SRPK1 (Homo sapiens, UniProt Q96SB4); test: SRPK1 kinase assay; format: biochemical; conditions: 10 μM compound; read-out: SRPK1 percent of inhibition
Description: as §1

c-Raf = c-Raf (Homo sapiens, UniProt P04049); test: c-Raf kinase assay; format: biochemical; conditions: 10 μM compound; read-out: c-Raf percent of inhibition
c-Raf, sequence (P04049 whole entry, species assumed): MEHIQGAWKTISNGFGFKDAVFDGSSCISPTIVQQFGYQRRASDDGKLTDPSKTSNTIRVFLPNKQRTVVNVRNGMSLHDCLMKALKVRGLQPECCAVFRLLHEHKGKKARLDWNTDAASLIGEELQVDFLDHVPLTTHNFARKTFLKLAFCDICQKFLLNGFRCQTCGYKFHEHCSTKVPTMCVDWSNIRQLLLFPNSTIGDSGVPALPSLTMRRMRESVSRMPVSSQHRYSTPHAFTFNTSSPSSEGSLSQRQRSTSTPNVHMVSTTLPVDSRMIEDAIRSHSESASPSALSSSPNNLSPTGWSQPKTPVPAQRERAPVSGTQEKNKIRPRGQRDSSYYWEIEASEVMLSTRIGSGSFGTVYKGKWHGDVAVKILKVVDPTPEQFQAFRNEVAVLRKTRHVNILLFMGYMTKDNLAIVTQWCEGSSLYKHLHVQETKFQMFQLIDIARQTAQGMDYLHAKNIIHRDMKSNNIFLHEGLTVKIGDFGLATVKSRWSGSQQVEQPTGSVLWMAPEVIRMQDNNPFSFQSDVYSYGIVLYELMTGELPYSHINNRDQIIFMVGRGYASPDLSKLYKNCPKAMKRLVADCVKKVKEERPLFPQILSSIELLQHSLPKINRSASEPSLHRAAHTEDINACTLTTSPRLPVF
Description: as §1

c-Src = c-Src (Homo sapiens, UniProt P12931); test: c-Src kinase assay; format: biochemical; conditions: 10 μM compound; read-out: c-Src percent of inhibition
Description: as §1

cMet = cMet (Homo sapiens, UniProt P08581); test: cMet kinase assay; format: biochemical; conditions: 10 μM compound; read-out: cMet percent of inhibition
Description: as §1

P56Lck = P56Lck (Homo sapiens, UniProt P06239); test: P56Lck kinase assay; format: biochemical; conditions: 10 μM compound; read-out: P56Lck percent of inhibition
P56Lck, sequence (P06239 whole entry, species assumed): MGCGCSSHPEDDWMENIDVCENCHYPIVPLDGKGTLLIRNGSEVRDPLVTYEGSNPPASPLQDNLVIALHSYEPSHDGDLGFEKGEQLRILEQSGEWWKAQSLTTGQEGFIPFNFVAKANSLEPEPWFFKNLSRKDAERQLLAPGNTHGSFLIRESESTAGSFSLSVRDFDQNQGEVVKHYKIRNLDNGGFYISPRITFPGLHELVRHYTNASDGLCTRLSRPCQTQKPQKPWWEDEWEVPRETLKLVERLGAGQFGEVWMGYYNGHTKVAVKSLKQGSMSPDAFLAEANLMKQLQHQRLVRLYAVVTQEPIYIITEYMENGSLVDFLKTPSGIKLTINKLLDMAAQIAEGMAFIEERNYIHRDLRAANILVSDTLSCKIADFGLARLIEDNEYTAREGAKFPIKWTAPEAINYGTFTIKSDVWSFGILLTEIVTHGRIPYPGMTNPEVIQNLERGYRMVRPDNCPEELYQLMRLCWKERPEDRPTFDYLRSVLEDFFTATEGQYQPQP
Description: as §1

P70S6K = P70S6K (Homo sapiens, UniProt P23443); test: P70S6K kinase assay; format: biochemical; conditions: 10 μM compound; read-out: P70S6K percent of inhibition
Description: as §1

Row | Compound | inhibition at 10 µM (EGFR) [%] | inhibition at 10 µM (AKT1/PKBa) [%] | inhibition at 10 µM (Abl) [%] | inhibition at 10 µM (CDK2/CycA) [%] | inhibition at 10 µM (CK1-alpha) [%] | inhibition at 10 µM (GSK-3beta) [%] | inhibition at 10 µM (IKK-beta) [%] | inhibition at 10 µM (InsR) [%] | inhibition at 10 µM (Jnk1a1) [%] | inhibition at 10 µM (Kit) [%] | inhibition at 10 µM (MAPK-ERK1) [%] | inhibition at 10 µM (PDGFR-beta) [%] | inhibition at 10 µM (ROCK2) [%] | inhibition at 10 µM (RSK1) [%] | inhibition at 10 µM (SRPK1) [%] | inhibition at 10 µM (c-Raf) [%] | inhibition at 10 µM (c-Src) [%] | inhibition at 10 µM (cMet) [%] | inhibition at 10 µM (P56Lck) [%] | inhibition at 10 µM (P70S6K) [%] | also measured
1 | Fc1ccccc1Nc1ncnc2sc3c(c12)CCCC3 [Compound 1, (2-Fluoro-phenyl)-(5,6,7,8-tetrahydro-benzo[4,5]thieno[2,3-d]pyrimidin-4-yl)-amine] | 97 | -5 | 10 | 3 | 6 | 7 | 23 | -7 | -4 | 13 | -8 | 4 | 3 | -18 | 11 | 23 | 13 | 1 | 10 | -23 | melting point: 160.7 °C
2 | Fc1cccc(Nc2ncnc3sc4c(c23)CCCC4)c1 [Compound 2, (3-Fluoro-phenyl)-(5,6,7,8-tetrahydro-benzo[4,5]thieno[2,3-d]pyrimidin-4-yl)-amine] | 98 | -7 | -19 | -1 | 6 | 3 | 19 | -6 | -3 | -5 | -14 | 4 | 6 | -22 | -5 | 16 | 6 | -10 | 25 | -26 | IC50 (EGFR): 12.4 nM; melting point: 210.6 °C
3 | Brc1cccc(Nc2ncnc3sc4c(c23)CCCC4)c1 [Compound 3, (3-Bromo-phenyl)-(5,6,7,8-tetrahydro-benzo[4,5]thieno[2,3-d]pyrimidin-4-yl)-amine] | 100 | -27 | -36 | 4 | 17 | -10 | 11 | -9 | 4 | -2 | 0 | 1 | 12 | 23 | 8 | -4 | 17 | -8 | 17 | 4 | IC50 (EGFR): 2.61 nM; melting point: 169 °C
4 | Nc1cccc(Nc2ncnc3sc4c(c23)CCCC4)c1 [Compound 4, N-(5,6,7,8-Tetrahydro-benzo[4,5]thieno[2,3-d]pyrimidin-4-yl)-benzene-1,3-diamine] | 98 | 1 | -7 | 16 | 5 | -2 | 12 | -7 | 6 | 2 | 8 | 0 | 7 | 6 | 6 | 14 | 24 | 2 | 9 | 2 | IC50 (EGFR): 16.8 nM; melting point: 164.3 °C (dec.)
5 | Fc1ccc(Nc2ncnc3sc4c(c23)CCCC4)cc1 [Compound 6, (4-Fluoro-phenyl)-(5,6,7,8-tetrahydro-benzo[4,5]thieno[2,3-d]pyrimidin-4-yl)-amine] | 99 | -8 | 4 | 11 | 7 | -1 | 8 | 44 | 15 | 7 | 5 | -12 | 6 | 19 | 9 | 12 | 12 | 4 | 11 | -7 | IC50 (EGFR): 10.5 nM
